Assay results from ChEMBL document CHEMBL4813980, “A novel class of selective non-nucleoside inhibitors of human DNA methyltransferase 3A” (Bioorg Med Chem Lett, 2021).
Activity calls are given as the source filed them. No cut-off for these calls is given here.

Experiments:
[1] = molecular target: T1, DNA (cytosine-5)-methyltransferase 3A (Homo sapiens, UniProt Q9Y6K1); experiment: Binding affinity to human DNMT3A catalytic domain assessed as inhibition of enzyme-mediated DNA methylation using 3H-AdoMet as substrate incubated for 30 mins
T1 sequence (Q9Y6K1 whole entry, looked up, the tested form may be a part): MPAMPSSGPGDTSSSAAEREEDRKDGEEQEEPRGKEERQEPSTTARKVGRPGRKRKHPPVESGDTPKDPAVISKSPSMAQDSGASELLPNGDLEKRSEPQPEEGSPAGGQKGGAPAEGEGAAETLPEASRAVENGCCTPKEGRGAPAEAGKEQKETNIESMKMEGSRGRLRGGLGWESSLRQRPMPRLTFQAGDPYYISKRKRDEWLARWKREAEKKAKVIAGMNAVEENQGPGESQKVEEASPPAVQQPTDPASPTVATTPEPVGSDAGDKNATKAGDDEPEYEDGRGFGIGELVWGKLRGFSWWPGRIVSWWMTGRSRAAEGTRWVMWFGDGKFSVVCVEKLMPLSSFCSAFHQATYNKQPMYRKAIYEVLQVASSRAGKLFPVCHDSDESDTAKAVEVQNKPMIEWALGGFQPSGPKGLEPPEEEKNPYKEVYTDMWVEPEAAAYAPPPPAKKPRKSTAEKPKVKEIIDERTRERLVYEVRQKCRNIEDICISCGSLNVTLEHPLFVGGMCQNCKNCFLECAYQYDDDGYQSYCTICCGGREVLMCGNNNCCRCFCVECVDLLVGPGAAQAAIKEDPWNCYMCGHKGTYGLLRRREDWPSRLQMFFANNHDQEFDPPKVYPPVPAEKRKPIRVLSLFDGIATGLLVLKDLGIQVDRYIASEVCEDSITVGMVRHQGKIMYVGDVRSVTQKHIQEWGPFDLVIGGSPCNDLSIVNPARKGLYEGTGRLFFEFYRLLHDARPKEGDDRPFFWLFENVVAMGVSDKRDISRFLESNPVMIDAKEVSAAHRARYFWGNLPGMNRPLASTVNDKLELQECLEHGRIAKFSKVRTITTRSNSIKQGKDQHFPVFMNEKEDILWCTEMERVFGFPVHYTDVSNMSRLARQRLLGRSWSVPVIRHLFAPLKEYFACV

[2] = molecular target: T1, DNA (cytosine-5)-methyltransferase 3A; experiment: Binding affinity to human DNMT3A catalytic domain assessed as inhibition of enzyme-mediated DNA methylation using poly dl-dC as substrate incubated for 30 mins
[3] = molecular target: T1, DNA (cytosine-5)-methyltransferase 3A; experiment: Mixed type inhibition of human DNMT3A using AdoMet as substrate
[4] = molecular target: T1, DNA (cytosine-5)-methyltransferase 3A; experiment: Mixed type inhibition of human DNMT3A using poly dl-dC as substrate
[5] = Inhibition of bacterial DNA cytosine methyltransferase M.SssI up to 60 uM preincubated for 15 mins followed by DNA addition measured after 30 mins relative to control; conditions: dose microM <=60, time 15.0 min
[6] = molecular target: DNA (cytosine-5)-methyltransferase 1 (Homo sapiens) (UniProt P26358); experiment: Inhibition of DNMT1 (unknown origin) up to 6 uM preincubated for 15 mins followed by DNA addition measured after 30 mins relative to control; conditions: dose microM <=6, time 15.0 min
DNA (cytosine-5)-methyltransferase 1 (Homo sapiens), sequence (P26358 whole entry, the tested form may be a part): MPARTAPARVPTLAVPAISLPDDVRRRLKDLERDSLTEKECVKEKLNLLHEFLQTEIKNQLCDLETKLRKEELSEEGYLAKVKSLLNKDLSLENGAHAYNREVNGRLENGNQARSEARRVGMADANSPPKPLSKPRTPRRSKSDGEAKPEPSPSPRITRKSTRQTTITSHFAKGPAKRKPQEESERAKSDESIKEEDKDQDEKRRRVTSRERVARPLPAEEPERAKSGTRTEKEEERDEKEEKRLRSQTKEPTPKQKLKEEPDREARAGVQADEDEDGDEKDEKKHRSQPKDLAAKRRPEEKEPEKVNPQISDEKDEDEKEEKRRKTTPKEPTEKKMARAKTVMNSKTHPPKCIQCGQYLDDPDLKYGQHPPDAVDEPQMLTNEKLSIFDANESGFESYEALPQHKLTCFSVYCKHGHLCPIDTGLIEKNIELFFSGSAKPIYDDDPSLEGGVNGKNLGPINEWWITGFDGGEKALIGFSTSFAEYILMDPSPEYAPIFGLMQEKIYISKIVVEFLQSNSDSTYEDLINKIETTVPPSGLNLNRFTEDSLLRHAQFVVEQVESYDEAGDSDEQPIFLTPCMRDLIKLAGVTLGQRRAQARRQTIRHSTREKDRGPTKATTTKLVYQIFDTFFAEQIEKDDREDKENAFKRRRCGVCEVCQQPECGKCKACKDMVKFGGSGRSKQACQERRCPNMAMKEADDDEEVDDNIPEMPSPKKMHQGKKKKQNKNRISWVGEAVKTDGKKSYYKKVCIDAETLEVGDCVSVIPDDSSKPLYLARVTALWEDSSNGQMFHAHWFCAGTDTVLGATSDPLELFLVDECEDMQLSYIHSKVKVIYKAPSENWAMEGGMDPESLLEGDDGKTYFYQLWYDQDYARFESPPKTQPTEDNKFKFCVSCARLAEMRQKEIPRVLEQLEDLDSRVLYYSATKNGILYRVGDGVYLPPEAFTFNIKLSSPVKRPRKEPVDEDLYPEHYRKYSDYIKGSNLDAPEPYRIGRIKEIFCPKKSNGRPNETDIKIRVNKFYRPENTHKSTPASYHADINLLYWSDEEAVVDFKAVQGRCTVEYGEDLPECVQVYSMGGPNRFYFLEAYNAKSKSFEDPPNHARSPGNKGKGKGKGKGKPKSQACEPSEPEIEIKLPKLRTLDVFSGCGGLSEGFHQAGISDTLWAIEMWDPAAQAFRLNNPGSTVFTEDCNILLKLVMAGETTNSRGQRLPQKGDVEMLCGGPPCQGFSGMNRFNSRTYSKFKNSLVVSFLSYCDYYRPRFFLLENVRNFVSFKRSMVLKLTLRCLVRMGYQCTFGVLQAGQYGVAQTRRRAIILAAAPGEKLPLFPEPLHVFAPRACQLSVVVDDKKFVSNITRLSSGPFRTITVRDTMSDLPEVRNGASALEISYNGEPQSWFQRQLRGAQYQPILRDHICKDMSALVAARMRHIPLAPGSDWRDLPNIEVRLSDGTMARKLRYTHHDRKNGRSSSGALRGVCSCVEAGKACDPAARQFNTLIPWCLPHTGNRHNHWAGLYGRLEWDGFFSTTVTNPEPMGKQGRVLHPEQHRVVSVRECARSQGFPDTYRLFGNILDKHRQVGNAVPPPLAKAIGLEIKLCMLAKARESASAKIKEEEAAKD

[7] = molecular target: T1, DNA (cytosine-5)-methyltransferase 3A; experiment: Inhibition of human DNMT3A (628 to 912 residues) preincubated for 15 mins followed by DNA addition measured after 30 mins relative to control
[8] = molecular target: T1, DNA (cytosine-5)-methyltransferase 3A; experiment: Uncompetitive inhibition of human DNMT3A using AdoMet as substrate
[9] = molecular target: T1, DNA (cytosine-5)-methyltransferase 3A; experiment: Uncompetitive inhibition of human DNMT3A using poly dl-dC as substrate

SMILES: COc1ccc(C2=NN(C3CCCCCC3)C(=O)C2(C)C)cc1OCCCCOc1ccc(-c2nnn[nH]2)cc1
- Ki [1]: 5.03 µM
- Ki [2]: 21.6 µM
- Ki [3]: 3.7 µM
- Ki [4]: 12.6 µM

SMILES: COc1ccc(C2=NN(C3CCCCCC3)C(=O)C2(C)C)cc1OCCCCOc1ccc(-c2nn[nH]n2)cc1
- inhibition [5]: inactive
- inhibition [6]: Active
- inhibition [7]: Active

SMILES: COc1ccc(C2=NN(C3CCCCCC3)C(=O)[C@@H]3CC=CC[C@H]23)cc1OCCCCOc1ccc(-c2nnn[nH]2)cc1
- Ki [1]: 13.8 µM
- Ki [2]: 16.1 µM
- inhibition [5]: inactive
- inhibition [6]: Active
- inhibition [7]: Active
- Ki [8]: 9.16 µM
- Ki [9]: 11.4 µM
